Square brackets hold non-standard residues; d marks the D form. Ends that are not written are not given here.

One series is described as follows: acute toxicity tests. It is filed as in vivo.
Series [1] concerns cysteamine-induced duodenal ulcer. The series is described as follows: cysteamine-induced duodenal ulcer, oral administration. Type of series: in vivo, rats. To be noted: for Lesion scoring: given immediately and 6 h after cysteamine, score 0-4, 24 h; for Incidence: ratio of animals with ulcer to survivals; for Ulcer index: severity of lesion + doubled incidence; for Ulcer index reduction, %: versus control group. Here is the method:
The efficacy of the proposed hexapeptide has been studied on experimental animals. Vister male rats were used to compare the therapeutic efficacy of the proposed preparation with that of the known preparations.
Duodenal ulcer was induced in experimental animals by subcutaneous administration of cysteamine hydrochloride in a dose of 350 mg per kg body weight (in 0.5 ml of physiological saline). The proposed preparation was given to the rats immediately and in 6 hours following the administration of the provoking agent. The proposed hexapeptide was given into the stomach through a gastric tube in doses of 10 and 100 mcg/kg; the known hexapeptide (U.S. Pat. No. 4,565,705) was given in a dose of 100 mcg/kg (cimetidine in a dose 10 mg/kg) in 0.5 ml of a 3 percent milk (five-fold diluted in physiological saline). Control animals were given 0.5 ml of a 3 percent milk diluted in a 5-fold volume of physiological saline immediately after administration of cysteamine hydrochloride and 6 hours later. The animals were sacrificed by decapitation in 24 hours after administration of cysteamine hydrochloride and the condition of the duodenal mucosa was assessed in them.
The severity of lesion was determined for each group of the rats using the following scoring system: 0--absense of ulceration; 1--erosion; 2--single ulcer; 3--multiple ulcers; 4--perforating ulcer. Besides, the incidence of lesion was determined in each group: the ratio of the animals with ulcer to the total number of survivals by the end of the experiment was determined. A conventional ulcer index (severity of lesion+doubled incidence of affections) was thus derived as the summary involvement index.
The obtained findings were treated statistically using the Student t-criterion (for severity of lesion) and Pirson X^2 criterion (for the incidence). The differences at the level of 95 percent significance were taken as trustworthy (P<0.05).

Series [2] is described as follows: solubility of the hexapeptide powder. Type of series: physicochemical.
Series [3] can be described thus: blood cell composition and haemodynamic indices in the experiments. Type of series: in vivo. Particulars: in the experiments with the proposed hexapeptide.
Series [4] deals with indomethacin-induced ulcers of the small intestine. The series is described as follows: indomethacin-induced ulcers of the small intestine. Type of series: in vivo, rats. Particulars: for Average number of ulcers: 30-cm distal small intestine, 24 h after indomethacin 20 mg/kg. The procedure: The proposed hexapeptide was also studied in experiments with indomethacin-induced ulcers of the small intestine. The efficacy of the proposed hexapeptide was compared with that of sulfasalazine. Indomethacin was given to the rats into the stomach through a tube in a dose of 20 mg/kg, in the form of a suspension in 0.5 ml of physiological saline. The proposed hexapeptide or sulfasalazine were given in doses of 100 μg/kg or 200 mg/kg respectively immediately after administration of indomethacin or 6 hours later. Indomethacin was given with 0.5 ml of a 3% milk diluted in 5 volumes of physiological saline. The same amount of the milk solution was given to the control animals. The rats were decapitated in 24 hours after the administration of indomethacin and the number of ulcers on the mucosa of a 30-cm long distal small intestine was counted. […] The average number of ulcers was determined for each group of the animals.
The findings were processed statistically using the Student t-criterion. Differences at the significance level of 95 % were taken as trustworthy (at P<0.05).

As for Y[dA]GFLE [proposed hexapeptide], the LD50 – broadly, the dose expected to kill half of the subjects tested – in “acute toxicity tests” is listed as 250 mg/kg. Also, in series [1] (10 μg/kg per os), the Lesion scoring turned out to be 1.60; the Incidence is listed as 0.80; the Ulcer index was determined as 3.20; the “Ulcer index reduction, %” value is 18%. Besides, in series [1] (100 μg/kg per os), the Lesion scoring was 0.83; the Incidence is given as 0.31; the Ulcer index worked out at 1.45; the “Ulcer index reduction, %” value was 63%. Further, the “anti-ulcer activity relative to cimetidine” value in series [1] (dose comparison, 100 μg/kg versus cimetidine 10 mg/kg, duodenum) turned out to be 100 times. In addition, the solubility result in series [2] (distilled water, physiological saline, alcohol) is listed as “readily soluble”. Moreover, the solubility entry in series [2] (ether, ethyl actate, benzene, or hexane) is reported as “insoluble”. Moreover, in series [3], the “changes in the cell composition of the blood” value is reported as “No changes” and the “changes in the main haemodynamic indices” value is “No changes”. The “Average number of ulcers” value in series [4] (100 μg/kg) came out at 23.40 ± 5.36. Besides, the “decrease of the average number of ulcers in the distal small intestine” value in series [4] (100 μg/kg, versus control) is given as 52%. The “anti-ulcer activity relative to sulfasalazine” value in series [4] (dose comparison, 100 μg/kg versus sulfasalazine 200 mg/kg, small intestine) is recorded as 2000 times.

Take `O=C(O)c1cc(/N=N/c2ccc(S(=O)(=O)Nc3ccccn3)cc2)ccc1O` [sulfasalazine, reference compound]: the “decrease of the number of ulcers in the intestine” value in series [4] (200 mg/kg, versus control) worked out at 46%. For the same compound, the “Average number of ulcers” value in series [4] (sulfasalazine 200 mg/kg) is reported as 27.50 ± 5.28.

Turning to `CN/C(=N/CCSCc1nc[nH]c1C)NC#N` [cimetidine, reference compound], in series [1] (10 mg/kg per os), the Lesion scoring was 1.00; the Incidence is 0.33; the Ulcer index is 1.66; the “Ulcer index reduction, %” value is 57%.

Source of the values: patent US5002933A, “Hexapeptide and medicinal preparation produced from it to treat erosive and ulcerative lesions of gastrointestinal tract” (priority 1987, dated 1991).
